The results in this text go back to the Kinase Knowledgebase extract (Sharma et al. 2016).

This assay deals with PIK3CA (human) (UniProt P42336). Put plainly: Assessment of PIK3CA Kinase Activity.
PIK3CA (human), sequence (P42336 whole entry, looked up): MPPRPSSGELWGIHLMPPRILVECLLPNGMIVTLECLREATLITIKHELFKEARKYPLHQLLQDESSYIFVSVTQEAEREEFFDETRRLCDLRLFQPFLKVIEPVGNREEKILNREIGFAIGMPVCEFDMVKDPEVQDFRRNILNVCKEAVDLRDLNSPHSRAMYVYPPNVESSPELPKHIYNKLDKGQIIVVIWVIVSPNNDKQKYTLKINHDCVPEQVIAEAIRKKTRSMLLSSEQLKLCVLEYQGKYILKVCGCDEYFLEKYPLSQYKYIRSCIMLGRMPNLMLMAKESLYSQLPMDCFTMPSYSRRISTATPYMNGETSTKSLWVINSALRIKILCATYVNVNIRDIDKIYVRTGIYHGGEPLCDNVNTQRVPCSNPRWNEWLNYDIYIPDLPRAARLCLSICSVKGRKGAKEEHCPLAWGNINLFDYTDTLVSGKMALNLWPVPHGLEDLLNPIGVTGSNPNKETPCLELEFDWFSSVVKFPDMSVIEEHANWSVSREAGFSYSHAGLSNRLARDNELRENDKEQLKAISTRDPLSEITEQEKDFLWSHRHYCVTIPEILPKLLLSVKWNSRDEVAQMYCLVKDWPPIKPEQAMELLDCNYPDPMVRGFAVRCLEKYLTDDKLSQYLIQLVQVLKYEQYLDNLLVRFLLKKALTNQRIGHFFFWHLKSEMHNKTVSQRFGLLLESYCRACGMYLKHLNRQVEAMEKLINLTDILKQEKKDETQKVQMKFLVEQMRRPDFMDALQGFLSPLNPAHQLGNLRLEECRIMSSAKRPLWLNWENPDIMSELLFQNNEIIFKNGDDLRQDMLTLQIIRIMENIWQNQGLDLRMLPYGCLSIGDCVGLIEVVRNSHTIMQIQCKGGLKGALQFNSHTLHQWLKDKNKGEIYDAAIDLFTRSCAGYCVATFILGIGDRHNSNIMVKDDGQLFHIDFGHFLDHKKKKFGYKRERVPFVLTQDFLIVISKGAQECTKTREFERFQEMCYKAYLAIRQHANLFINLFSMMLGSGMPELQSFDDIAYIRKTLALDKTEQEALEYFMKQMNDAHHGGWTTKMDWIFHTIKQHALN
Molecule `COc1cc(-c2ccc3ncc(NC(=O)Nc4cccs4)nc3n2)ccc1O` displayed an IC50 below 1000 nM.

Regarding `CCNC(=O)Nc1cnc2ccc(-c3cc(C)c(O)c(C)c3)nc2n1`, the IC50 was below 5000 nM.

`CCNC(=O)Nc1cnc2ccc(-c3ccc(O)c(Cl)c3)nc2n1` came in with an IC50 below 5000 nM.

In the case of `COc1cc(-c2ccc3ncc(NC(=O)NC4CCN(C(=O)C(F)(F)F)CC4)nc3n2)ccc1O`, the IC50 is below 1000 nM.

`COc1cc(-c2ccc3ncc(NC(=O)NCCCl)nc3n2)ccc1O`: the IC50 was below 1000 nM.

For the molecule `CNC(=S)Nc1cnc2ccc(-c3ccc(O)c(OC)c3)nc2n1`, the IC50 is below 1000 nM.

`COc1cc(-c2ccc3ncc(NC(=O)Nc4ccncc4)nc3n2)ccc1O`: the IC50 was below 1000 nM.

`CCNC(=S)Nc1ccc2ncc(Nc3cc(OC)c(OC)c(OC)c3)nc2n1` had an IC50 below 1000 nM.

The molecule `CCNC(=O)Nc1ccc2ncc(Nc3ccccc3O)nc2n1` gave an IC50 below 5000 nM.

On to `CC(C)(C)NC(=O)Nc1cnc2ccc(-c3cc(Cl)c(O)c(Cl)c3)nc2n1`, for which the IC50 was below 5000 nM.

Take `CNC(=O)Nc1cnc2ccc(-c3ccc(OC)c(OC)c3)nc2n1`: the IC50 was below 5000 nM.

With `CCNC(=S)Nc1ccc2ncc(Nc3ccc(OC)c(O)c3)nc2n1`, the IC50 was below 1000 nM.

On to `COc1cc(Nc2cnc3ccc(NC(=S)NC4CCCC4)nc3n2)cc(OC)c1OC`, for which the IC50 is below 1000 nM.

The molecule `CCNC(=O)Nc1ccc2ncc(-c3ccc(OC(C)=O)c(OC)c3)nc2n1` showed an IC50 below 5000 nM.

Consider `COc1cc(-c2ccc3ncc(NC(=O)NC4CCCC4)nc3n2)ccc1O`, for which the IC50 was below 1000 nM.

`CCNC(=O)Nc1ccc2ncc(-c3ccc(OC)c(O)c3)nc2n1`: the IC50 was below 5000 nM.

Turning to `CCNC(=O)Nc1cnc2ccc(-c3ccc(O)c(OC)c3)nc2n1`, the IC50 is below 500 nM.

On to `CCNC(=O)Nc1ccc2ncc(Nc3ccc(O)c(C(=O)OC)c3)nc2n1`, for which the IC50 is below 1000 nM.

Molecule `CCNC(=O)Nc1ccc2ncc(Nc3cccc(O)c3)nc2n1` came in with an IC50 below 5000 nM.

`O=C(Nc1cnc2ccc(-c3cc(Cl)c(O)c(Cl)c3)nc2n1)NC1CCCC1` registered an IC50 below 1000 nM.

Consider `CCNC(=O)Nc1ccc2ncc(Nc3cccc(OC(F)F)c3)nc2n1`, for which the IC50 was below 5000 nM.

For orientation: IC50 means the concentration that inhibits the measured activity by half. Lower therefore signals greater potency in that assay.
